{
  "source": "paper PMC8018184",
  "about": "“Evaluation of the Pharmacophoric Role of the O–O Bond in Synthetic Antileishmanial Compounds: Comparison between 1,2-Dioxanes and Tetrahydropyrans” (Journal of Medicinal Chemistry, 2020)",
  "key": {"[1]": {"assay": "Cytotoxicity test on THP-1 cells (alamarBlue)", "type": "cell-based", "settings": "human, THP-1 cells (acute monocytic leukemia cell line); CSV supplement; read-out: CC50 against human acute monocytic leukemia cell line (THP-1)", "procedure": "Vero cells (kidney of African green monkey epithelial cell line) were cultured at 37 °C in the MEM liquid medium supplemented with 10% FBS (EuroClone SpA), 1% levoglutamine (EuroClone SpA), and 1% penicillin–streptomycin (EuroClone SpA). THP-1 cells (human leukemia monocytic cell line) were cultured at 37 °C in the RPMI 1640 (EuroClone SpA) liquid medium supplemented with 10% FBS (EuroClone SpA), 1% levoglutamine (EuroClone SpA), 1% penicillin–streptomycin, and mercaptoethanol (Gibco) 50 μM.\nThe cytotoxicity of the compounds was determined using mammalian kidney epithelial cells (Vero cell line) and human acute monocytic leukemia cell line (THP-1). Cells were seeded (10^5 cells mL^–1) on 96-well plates with the complete MEM medium and incubated with test compounds at 37 °C in a 5% CO2 incubator. After 72 h of incubation, 20 μL of the alamarBlue reagent was added to each well and incubated at 37 °C for 24 h. Reduction of resazurin to resorufin was evaluated after 24 h by absorbance measurement at the Multiskan ascent plate reader (Thermo Fisher Scientific Inc.,) at 550 and 630 nm. […] Each experiment was performed in duplicate.\nCytotoxicity in THP-1 cell line\nWe performed additional cytotoxicity tests employing THP-1 cell line. We also calculated the\ncorresponding selectivity indexes, as the ratio between CC50 of THP-1 cell line and IC50 on amastigotes\nTHP-1 cells than on VERO cells; thus showing a not significant variance of selectivity index.\nTable S3. Inhibitory activity of tetrahydropyrans 3 and endoperoxides 2 against amastigotes of L.\ndonovani, cytotoxicity in human acute monocytic leukemia cell line (THP-1) and selectivity index (SI).\nTetrahydropyran IC50 CC50 Endoperoxide IC50 CC50\na (µM)b (µM)c a (µM)b (µM)c\na Compounds tested as racemates. b IC50 represents the concentration of a compound that causes 50% growth inhibition.\nResults represent the mean (± standard deviation, SD) of three independent experiments performed in duplicate. c CC50\nrepresents 50% cytotoxic concentration on THP-1 cells. d Selectivity index (SI) = CC50/IC50. […]"}, "[2]": {"tested_on": "ROS in L. donovani promastigotes", "assay": "Evaluation of intracellular ROS levels (H2DCFDA fluorescence)", "type": "cell-based, Leishmania donovani", "settings": "for Intracellular ROS levels compared to negative control (untreated promastigotes): compound at its IC50, 24 h, H2DCFDA; for ROS production compared to positive controls: compound at its IC50, H2O2 20 μM, miltefosine 22 μM", "procedure": "We evaluated the ability of our synthetic compounds to generate reactive oxygen species (ROS) in L. donovani promastigotes. We selected the endoperoxide 2a and the tetrahydropyran 3a as model substrates, which were administered to the parasites in the presence of 2,7-dichlorodihydrofluorescein diacetate (H2DCFDA), a live-cell-permeable dye, which is oxidized by ROS, providing a fluorescent compound (DCF) (see Experimental Section for details).[103] Therefore, the resultant fluorescence is a direct measure of the amount of ROS generated.\nTo monitor the effect of the compounds on the production of ROS in promastigotes of L. donovani, an oxidant-sensitive green fluorescent dye (2,7-dichlorofluorescein diacetate, H2DCFDA) was used. […] Subsequently, parasitic cells were washed in PBS (pH 7.4), loaded with 10 μM permeant probe H2DCFDA (Sigma, St. Louis, MO, USA), and incubated in the dark for 35 min at 26 °C.[103] H2O2 (20 μM)[124] and miltefosine (22 μM)[125] were used as positive controls. Each experiment was performed in triplicate. Reactive oxygen species (ROS) production was measured as an increase in fluorescence caused by the conversion of nonfluorescent dye to highly fluorescent 2,7-dichlorofluorescein, with an excitation wavelength of 488 nm and an emission wavelength of 530 nm. Plates were read by employing a fluorescence microplate reader Varioskan Flash (Thermo Fisher Scientific Inc.)."}, "[3]": {"tested_on": "L. donovani promastigotes (MHOM/NP/02/BPK282/0cl4)", "assay": "Promastigote growth inhibition assay (alamarBlue)", "type": "cell-based, Leishmania donovani", "settings": "for IC50: Leishmania donovani, 72 h, alamarBlue, HOMEM 20% FBS, compounds as racemates, read-out: IC50 (concentration causing 50% growth inhibition) against promastigotes of L. donovani; for Selectivity index (SI) = CC50/IC50: Vero CC50 / IC50 on promastigotes", "procedure": "The bioactivity of the new tetrahydropyrans 3 was initially evaluated against the extracellular promastigote forms of L. donovani (MHOM/NP/02/BPK282/0cl4) as the reference strain, indicative of the leishmaniasis in the Old World. The results were expressed as IC50, i.e., the concentration of the product required to inhibit the parasite growth by 50%. When a compound could inhibit the promastigote growth, its cytotoxicity was also evaluated on Vero cells (Table 1) and on THP-1 cells (see the Supporting Information, Table S3) and the corresponding selectivity indexes (SIs) were calculated. The performance of each tetrahydropyran 3 was compared with that of the corresponding endoperoxide 2 (Table 1).\nPromastigotes of a L. donovani reference strain (MHOM/NP/02/BPK282/0cl4) were maintained at 26 °C in a liquid custom-made medium, HOMEM Cat. no: 1140-082 (Gibco Thermo Fisher Scientific Inc., Waltham, USA), complete composition: S-MEM (Eagle) 1 × 1 liter pack, glucose (1–2 g), sodium bicarbonate (0.3 g), sodium pyruvate (0.11 g), p-aminobenzoic acid (1 mg), biotin (0.1 mg), HEPES (4.77–5.96 g), MEM amino acids (10 mL), MEM nonessential amino acids (10 mL), pH 7.5–7.6, supplemented with 20% fetal bovine serum (FBS, EuroClone SpA, Milan, Italy)[123] and 1% penicillin–streptomycin (EuroClone SpA).\nTo evaluate the efficacy of the compounds on the extracellular forms of L. donovani, promastigotes in their late log/stationary phase were seeded with the complete HOMEM medium at 10^6 cells mL^–1 in 96-well plates and incubated with tested compounds at a range concentration of 600–1.6 μM in a 26 °C incubator for 72 h. The antileishmanial drug amphotericin B was used as the positive control, and untreated promastigotes were the negative control. Each experiment was performed in duplicate. Stock solution of the compounds was 8 mM in DMSO. […] The alamarBlue assay includes a colorimetric growth indicator based on detection of metabolic activity. Specifically, the system incorporates an oxidation–reduction (REDOX) indicator that changes color in response to chemical reduction of the growth medium resulting from cell growth. The method monitors the reducing environment of proliferating cells; the cell-permeable resazurin is added (nonfluorescent form, blue color) and, upon entering cells, is reduced to resorufin (fluorescent form, red color) as a result of cellular metabolic activity. Evaluation was performed by adding 20 μL of alamarBlue and incubating at 26 °C for 24 h. The reducing environment was evaluated after 24 h by absorbance measurement at the Multiskan ascent plate reader (Thermo Fisher Scientific Inc.) at 550 and 630 nm."}},
  "data": [
    {"smiles": "CCCCC1(CCCC)CO[C@@](C)(OC)[C@@H](CNCCCn2ccnc2)C1", "note": "(racemic) [3a, N-((5,5-Dibutyl-2-methoxy-2-methyltetrahydro-2H-pyran-3-yl)methyl)-3-(1H-imidazol-1-yl)propan-1-amine]", "values": [
      {"measurement": "CC50 at 72 h", "setting": "[1]", "value": 26, "unit": "µM"},
      {"measurement": "Intracellular ROS levels compared to negative control (untreated promastigotes)", "setting": "[2]", "value": "increase in the intracellular ROS levels"},
      {"measurement": "ROS production compared to positive controls", "setting": "[2]", "value": "higher ROS production when compared to H2O2"},
      {"measurement": "IC50", "setting": "[3]", "value": "3.4 ± 0.4", "unit": "µM"},
      {"measurement": "Selectivity index (SI) = CC50/IC50", "setting": "[3]", "value": 10.4}
    ]},
    {"smiles": "CCCCC1(CCCC)C[C@H](CNCCCn2ccnc2)[C@](C)(OC)OO1", "note": "[2a]", "values": [
      {"measurement": "CC50 at 72 h", "setting": "[1]", "value": 86, "unit": "µM"},
      {"measurement": "Intracellular ROS levels compared to negative control (untreated promastigotes)", "setting": "[2]", "value": "increase in the intracellular ROS levels"},
      {"measurement": "ROS production compared to positive controls", "setting": "[2]", "value": "lower fluorescence intensity when compared to H2O2 and miltefosine"},
      {"measurement": "IC50", "setting": "[3]", "value": "7.5 ± 1.7", "unit": "µM"},
      {"measurement": "Selectivity index (SI) = CC50/IC50", "setting": "[3]", "value": 9.6}
    ]}
  ]
}
